Data published in patent publication US20230114264A1, “ACTIVATION OF LYTIC GENES IN CANCER CELLS” (priority 2020, published 2023).

How the values were obtained:
BZLF1 = assay: EBV reactivation by BZLF1 gRNA transfection (Casilio) in C666-1 cells stably expressing HA-dCas9-EGFP and 3×FLAG-PUFa-p65HSF1; format: cell-based, Epstein-Barr virus (EBV)
Procedure: SNU-719 and C666-1 cells stably expressing HA-dCas9-EGFP and 3×FLAG-PUFa-p65HSF1 were cultivated in RPMI-1640 (Sigma) with 10% fetal bovine serum (FBS) (Gibco) and 1% GlutaMAX (Gibco) and cultured in 37° C. incubator with 5% CO2. EBV reactivation experiments were conducted with cells seeded into 6-well plates at 2×10^6 cells per well the day before transfection. 2 micrograms (μg) of control gRNA or individual BZLF1 gRNA (A3) (SEQ ID NO: 8), gRNA (A4) (SEQ ID NO: 9), gRNA (A5) (SEQ ID NO: 10), or gRNA (A6) (SEQ ID NO: 11) gRNAs were transfected into cells with Lipofectamine 2000 (Invitrogen). After transfection, cells were grown for 48 hours and harvested for protein extraction or FACS (FIGS. 4, 5, 7A-7E).
FACS Analysis. Cells were harvested with trypsin and fixed for 15 minutes (mins) with 4% paraformaldehyde. The cells were then centrifuged at 2000×g for 5 mins and resuspended in 3% BSA for 30 mins. The resuspend cells were centrifuged again at 2000×g for 5 mins. Samples were stained with Alexa-647 conjugated anti-BZLF1 monoclonal antibody for 2 hours. Samples were analyzed on a FACSCalibur flow cytometer using CellQuest Pro software (BD Bioscience). Thousands of events were collected in each run.
Quantitative RT-PCR Analysis. Cells were harvested with trypsin, centrifuged at top speed for 1 min, and RNA was extracted using TRIzol reagent (Invitrogen). 2 μg of total RNA was used to produce a cDNA library using Superscript III Reverse Transcriptase. SYBR Green gene expression assays (Roche) were performed using the GAPDH primers as endogenous control and primers targeting the EBV lytic genes BZLF1, BGLF4, BLRF2 were used to assess EBV reactivation. Power SYBR Green master mix was used for performing real-time quantitative PCR (RT-qPCR). Each reaction was performed with 2 μL of 1:3 diluted cDNA. The RT-qPCR samples were analyzed with a Roche LC480 PCR instrument. Gene expression levels were calculated by “delta Ct” algorithm and normalized to control samples.

EBV lytic genes = assay: EBV lytic gene induction in DOX-induced C17 dCas9-Tet-on-PUFa-p65HSF1 sgRNA cells; format: cell-based, Epstein-Barr virus (EBV)
Procedure: SNU-719, C666-1 and C17 (nasopharyngeal carcinoma) cancer cells stably expressing HA-dCas9-EGFP and BZLF1 sgRNA3 were modified to inducibly express 3×FLAG-PUFa-p65HSF1 using a Tetracycline response element (Tet-On).
dCas9-Tet on-p65HSF1-BZLF1sgRNA3 cell lines were produced as described previously. EBV reactivation, FACS, electrophoretic gel images, RT-PCR experiments, RNAscope in situ hybridization, growth proliferation assay and functional virion proliferation assay were conducted as described previously
Producing HA-dCas9-EGFP-Tet-on PUFa-p65HSF1-BZLF1 sgRNA3-BRLF1sgRNA3 cell line. The day prior to transfection, HEK-293FT cells were seeded into a 10 cm culture dish at 70% density. […]. At 6 hours post-transfection, medium was exchanged for fresh. At 48 hour post-transfection, 5 mL of medium containing the lentivirus was collected and centrifuged for 10 minutes at 2,000 rpm to remove cellular debris. The supernatant was filtered through a 0.45-micron filter (Millipore), and the lentivirus was collected. […]

C666-1 cells = assay: Growth proliferation, viability, apoptosis, cell cycle and clonogenic assays in C666-1 cells; format: cell-based
Procedure: (§1) Growth proliferation assay. SNU-719 HA-dCas9-Tet-on-PUFa-p65HSF1-BZLF1 gRNA (3) or C666-1 HA-dCas9-Tet-on-PUFa-p65HSF1-BZLF1 gRNA (A5) cells were seeded into individual wells of a 96-well plate for at 1×10^5 cells per well the day before being treated with 1 μg/mL DOX and Ganciclovir (GCV). Cells were counted with the cell counting kit-8 (CCK-8, Sigma) at day 6, day 7, and day 8 (FIGS. 8H-8I).
(§2) Active caspase-3 analysis. To detect the apoptosis in DOX treated dCas9-Tet on-p65HSF1-BZLF1sgRNA3 SNU719 and C17 cells, active caspase-3 apoptosis kit (BD Pharmingen #550914) was used. Untreated and treated cells were trypsinized and then fixed with fixation buffer in ice for 20 mins and washed with washing buffer twice. Cells were then stained with the PE conjugated rabbit anti active caspase-3 antibody in dark for 30 mins. Stained cells were collected with BD LSRFortessa.
(§3) Cell cycle analysis. After 96 hours from induction of DOX, dCas9-Tet on-p65HSF1-BZLF1sgRNA3 SNU719 and C17 cells were trypsinized and then fixed with 75% cold ethanol for 2 hrs at −20° C. Cells were washed three times with cold PBS and then resuspended in PBS containing 100 μg/mL RNase A and 10 μg/mL propidium iodide for 10 min at room temperature. Stained cells were collected with BD LSRFortessa.
(§4) Clonogenic assays. Cells were seeded at a density of 500 cells/well in 6-well plates the day before treatment. Then cells were stained with 0.5% crystal violet 14 days after treatment, and at least 50 cells were considered as a single colony

C17 cells = assay: Growth proliferation, viability, apoptosis, cell cycle and clonogenic assays in C17 cells; format: cell-based
Procedure: as §1, §2, §3, §4

EBV-negative AKATA cells = assay: Functional virion proliferation assay; format: cell-based
Procedure: Functional virion proliferation assay. SNU-719 HA-dCas9-Tet-on-PUFa-p65HSF1-BZLF1 gRNA (3) or C666-1 HA-dCas9-Tet-on-PUFa-p65HSF1-BZLF1 gRNA (A5) cells were seeded into 15 cm culture dish at 70% density the day before being treated with 1 μg/mL DOX. The supernatant was filtered utilizing a […] (Millipore), and virus was collected by ultra-centrifuged at 20,000 rpm for 4 hours at 4° C. and resuspended in 1:30 fresh medium. EBV negative AKATA cells were treated with the medium containing virus for 96 hours, and RNA samples were extracted for quantitative RT-PCR Analysis (FIG. 8J).

## BZLF1 gRNA (A5): BZLF1 gRNA spacer sequence SEQ ID NO: 10, GAAACTATGCATGAGCCAC (chemistry not given here)
BZLF1; C666-1, 2 μg gRNA, 48 hours after transfection, protein extraction or FACS
  EBV reactivation, induction of BZLF1 (Zta) protein expression: reactivate EBV expression at detectable levels
BZLF1; C666-1, FIG. 7D
  BZLF1 (ZTa) protein expression by immunostaining: activated BZLF1 (ZTa) protein expression
BZLF1; RT-qPCR, FIG. 7F, cell line not stated
  expression of the downstream EBV genes BGLF4 and BLRF2: induces the expression of the downstream EBV genes BGLF4 and BLRF2
EBV lytic genes; 1 μg/mL DOX
  expression of other EBV lytic genes including BRLF1 (Rta), BGLF4 (PK), BFRF3 (VCAp18), BMRF1, BdRF1 and BLLF1: induces the expression of other EBV lytic genes
EBV lytic genes; 1 μg/mL Doxycycline (DOX), Example 10
  BZLF1 (Zta) reactivation: reactivated BZLF1 (Zta)
C666-1 cells; DOX induced, FIG. 17B
  cell cycle by flow cytometry: sub G1 phase accumulation and S phase decrease
C666-1 cells; DOX-induced EBV reactivation
  cell proliferation, apoptosis and growth of cells in vitro: suppressed the cell proliferation, induced apoptosis, and slowed the growth of cells
C666-1 cells; EBV reactivation, FIGS. 3B, 6A, 8H
  slowing of growth rate of cells compared with cells treated with ganciclovir (GCV) alone: greater than 4 fold
C666-1 cells; FIG. 6B, 120 hours following treatment
  decrease of C666-1 cell viability relative to control: 50-70%
C666-1 cells; after DOX induction, FIG. 17E
  monolayer colony formation: dramatic suppression
C17 cells; DOX induced, FIG. 17B
  cell cycle by flow cytometry: sub G1 phase accumulation and S phase decrease
C17 cells; DOX-induced EBV reactivation
  cell proliferation, apoptosis and growth of cells in vitro: suppressed the cell proliferation, induced apoptosis, and slowed the growth of cells
C17 cells; after DOX induction, FIG. 17E
  monolayer colony formation: dramatic suppression
EBV-negative AKATA cells; supernatant from DOX treated C17 cells
  infection of EBV-negative AKATA cells, EBV gene expression detectable (e.g. LMP1, EBER1, EBNA1, BZLF1, BRLF1): able to infect the EBV-negative AKATA cells
EBV-negative AKATA cells; supernatant from DOX treated SNU-719 cells
  infection of EBV-negative AKATA cells, EBV gene expression detectable (e.g. LMP1, EBER1, EBNA1, BZLF1, BRLF1): able to infect the EBV-negative AKATA cells
EBV-negative AKATA cells; supernatant from SNU-719 cells expressing HA-dCas9-EGFP, gRNA and 3×FLAG-PUFa-p65HSF1
  infection of EBV-negative AKATA cells and EBV gene expression (e.g. EBER1): able to infect and trigger the EBV gene expression
